The source of these data is patent US9181236B2, “2-spiro-substituted iminothiazines and their mono-and dioxides as bace inhibitors, compositions and their use” (Merck Sharp & Dohme Corp., priority 2011, dated 2015).

The term Ki denotes the dissociation constant of the complex between target and ligand, obtained from inhibition or displacement.

Each structure is given as a SMILES string. Bounds are passed on as bounds.

In assay [1] the target is soluble human BACE1 catalytic domain (Homo sapiens (Human), UniProt P56817). Kind of assay: BACE1 HTRF FRET Assay. The settings on record: for Ki: Ki calculated from IC50 using the Cheng-Prusoff equation; for inhibition at 10 µM: read-out: BACE1 % Inh. at 10 μM. The format is biochemical. From the text: A homogeneous time-resolved FRET assay can be used to determine IC50 values for inhibitors of the soluble human BACE1 catalytic domain. This assay monitors the increase of 620 nm fluorescence that resulted from BACE1 cleavage of an APPswedish APP^swe mutant peptide FRET substrate (QSY7-[…]-Europium-amide). This substrate contains an N-terminal QSY7 moiety that serves as a quencher of the C-terminal Europium fluorophore (620 nm Em). In the absence of enzyme activity, 620 nm fluorescence is low in the assay and increased linearly over 3 hours in the presence of uninhibited BACE1 enzyme Inhibition of BACE1 cleavage of the QSY7-APP^swe-Eu substrate by inhibitors is manifested as a suppression of 620 nm fluorescence.
Reactions are initiated by addition of 10 μl of 600 nM QSY7-APP^swe-Eu substrate (200 nM final) to give a final reaction volume of 30 μl in a 384 well Nunc HTRF plate. The reactions are incubated at 30° C. for 1.5 hours. The 620 nm fluorescence is then read on a Rubystar HTRF plate reader (BMG Labtechnologies) using a 50 millisecond delay followed by a 400 millisecond acquisition time window Inhibitor IC50 values are derived from non-linear regression analysis of concentration response curves.

Assay [2] deals with purified human autoBACE-2 (Homo sapiens (Human), UniProt Q9Y5Z0). In words: BACE-2 Assay (BACE-HTRF assay). The note with it: Ki calculated from IC50 using the Cheng-Prusoff equation; read-out: BACE2 Ki. The format is biochemical. The method, then: Inhibitor IC50s at purified human autoBACE-2 are determined in a time-resolved endpoint proteolysis assay that measures hydrolysis of the QSY7-[…]-Eu-amide FRET peptide substrate (BACE-HTRF assay). […] DMSO is present at 5% final concentration in the assay. Following laser excitation of sample wells at 320 nm, the fluorescence signal at 620 nm is collected for 400 ms following a 50 μs delay on a RUBYstar HTRF plate reader (BMG Labtechnologies). Raw RFU data is normalized to maximum (1.0 nM BACE/DMSO) and minimum (no enzyme/DMSO) RFU values. […] The Ki values are calculated from the IC50 using the Cheng-Prusoff equation.
purified human autoBACE-2, sequence (Q9Y5Z0 63-473 limits assumed): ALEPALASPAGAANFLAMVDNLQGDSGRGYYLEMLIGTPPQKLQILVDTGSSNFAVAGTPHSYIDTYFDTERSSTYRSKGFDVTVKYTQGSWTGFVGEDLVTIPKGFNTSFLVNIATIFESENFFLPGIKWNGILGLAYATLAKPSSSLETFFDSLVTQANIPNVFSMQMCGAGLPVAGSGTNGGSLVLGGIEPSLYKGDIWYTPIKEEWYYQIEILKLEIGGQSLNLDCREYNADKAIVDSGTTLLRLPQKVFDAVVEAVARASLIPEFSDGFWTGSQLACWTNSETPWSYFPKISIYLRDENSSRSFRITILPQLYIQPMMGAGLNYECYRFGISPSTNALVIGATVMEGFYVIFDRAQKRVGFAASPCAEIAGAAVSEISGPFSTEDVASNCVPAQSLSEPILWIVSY

soluble human BACE1 catalytic domain, sequence (P56817 75-416): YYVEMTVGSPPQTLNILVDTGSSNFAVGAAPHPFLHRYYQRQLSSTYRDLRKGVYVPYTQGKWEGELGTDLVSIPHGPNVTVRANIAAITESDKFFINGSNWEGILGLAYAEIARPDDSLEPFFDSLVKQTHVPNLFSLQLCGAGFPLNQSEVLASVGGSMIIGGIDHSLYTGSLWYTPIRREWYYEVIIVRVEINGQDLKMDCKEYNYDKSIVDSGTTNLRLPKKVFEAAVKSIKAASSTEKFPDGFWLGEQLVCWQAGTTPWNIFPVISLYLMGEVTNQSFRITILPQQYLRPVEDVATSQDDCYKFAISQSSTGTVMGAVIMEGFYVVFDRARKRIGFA

Turning to `C[C@@]1(c2sc(-c3cccc(-c4nnco4)c3)cc2Cl)CS(=O)(=O)[C@@]2(CCOC2)C(=N)N1` [Example 63g], the Ki in assay [1] is 0.0202 µM; in assay [2], under 0.05 µM.
On to `CC(C)(C)C#Cc1cc(Cl)c([C@]2(C)CS(=O)(=O)C3(CCC3)C(=N)N2)s1` [Example 77a], for which the Ki is 0.165 µM in assay [1] and under 0.02 µM in assay [2].
Take `C[C@@]1(c2cc(NC(=O)c3ccn(C(F)F)n3)ccc2F)CS(=O)(=O)C2(CCCC2)C(=N)N1` [Example 22]: the Ki was 0.0127 µM in assay [1] and 0.0043 µM in assay [2].
Taken in the same sequence, the figures for `Cc1nc(C(=O)Nc2ccc(F)c([C@]3(C)CS(=O)(=O)C4(CCCC4)C(=N)N3)c2)no1` [Example 21] were 0.0139 µM and 0.0013 µM.
Consider `COc1ccc(C(=O)Nc2ccc(F)c([C@]3(C)CS(=O)(=O)C4(CCOCC4)C(=N)N3)c2)nc1` [Example 35], for which the results for the Ki in assay [1] and in assay [2] were 0.0164 µM and under 0.02 µM, respectively.
`C[C@@]1(c2sc(-c3cncc(C#N)c3)cc2Cl)CS(=O)(=O)C2(CCCCC2)C(=N)N1` [Example 46]: the Ki in assay [1] was 0.114 µM; in assay [2], under 0.05 µM.
The corresponding values for `C[C@@]1(c2cc(NC(=O)c3ncc(F)cc3F)ccc2F)CS(=O)(=O)C2(CC2)C(=N)N1` [Example 4] are 0.005 µM and 0.0005 µM.
Take `COc1cccc2cc(-c3cc(Cl)c([C@]4(C)CS(=O)(=O)C5(CCCCC5)C(=N)N4)s3)[nH]c12` [Example 44]: the Ki is 0.0202 µM in assay [1] and 0.002 µM in assay [2].
Consider `C[C@@]1(c2sc(-c3ccnc(-c4ccccc4)c3)cc2Cl)CS(=O)(=O)[C@]2(CCOC2)C(=N)N1` [Example 62n], for which the Ki in assay [1] is 0.313 µM; in assay [2] it was under 0.02 µM.
As to `C[C@@]1(c2sc(-c3cncc(-c4ncco4)c3)cc2Cl)CS(=O)(=O)[C@]2(CCOC2)C(=N)N1` [Example 62h], the Ki is 0.0567 µM in assay [1] and 0.0028 µM in assay [2].
Taken in the same sequence, the figures for `C[C@@]1(c2sc(Br)cc2Cl)CS(=O)(=O)C2(CC2)C(=N)N1` were 0.912 µM and 0.465 µM.
As for `C[C@@]1(c2cc(NC(=O)c3ccc(Cl)cn3)ccc2F)CS(=O)(=O)[C@@]2(CCOC2)C(=N)N1` [Example 63c], the values for the Ki in assay [1] and in assay [2] were 0.0059 µM and 0.0013 µM, respectively.
For the compound `C[C@@]1(c2sc(-c3ccnc(-c4ccsc4)c3)cc2Cl)CS(=O)(=O)[C@@]2(CCOC2)C(=N)N1` [Example 63n], the Ki in assay [1] was 0.428 µM; in assay [2], under 0.02 µM.
`C[C@@]1(c2cc(NC(=O)c3ccc(F)cn3)ccc2F)CS(=O)(=O)C2(CC(O)C2)C(=N)N1` (some centres unmarked) [Example 74]: the values for the Ki in assay [1] and in assay [2] were 0.0218 µM and 0.0038 µM, respectively.
On to `C[C@@]1(c2cc(NC(=O)c3ccc(F)cn3)ccc2F)CS(=O)(=O)[C@@]2(CCOC2)C(=N)N1` [Example 63b], for which the inhibition constant Ki in assay [1] is 0.0187 µM; in assay [2] it was 0.0027 µM.
As to `C[C@@]1(c2cc(NC(=O)c3ccc(F)cn3)ccc2F)CS(=O)(=O)C2(CC(O)C2)C(=N)N1` (some centres unmarked) [Example 75], the inhibition constant Ki in assay [1] is 0.0125 µM; in assay [2] it was 0.0017 µM.
Turning to `C[C@@]1(c2cc(NC(=O)c3ccc(F)cn3)ccc2F)CS(=O)(=O)C2(CCCC2)C(=N)N1` [Example 13], the Ki is 0.0031 µM in assay [1] and 0.0003 µM in assay [2].
`C[C@@]1(c2sc(-c3cncc(C#N)c3)cc2Cl)CS(=O)(=O)C2(CC2)C(=N)N1` [Example 65]: the Ki in assay [1] was 0.108 µM; in assay [2], under 0.05 µM.
Regarding `C[C@@]1(c2cc(N)ccc2F)CS(=O)(=O)C2(CCCCC2)C(=N)N1`, the inhibition at 10 µM in assay [1] stood at 49%. Further, the inhibitory constant (Ki) in assay [2] was 2.8 µM.
Take `C[C@@]1(c2sc(-c3cncc(C#N)c3)cc2Cl)CS(=O)(=O)C2(CCC2)C(=N)N1` [Example 59]: the results for the Ki in assay [1] and in assay [2] were 0.056 µM and under 0.02 µM, respectively.
`C[C@@]1(c2cc(N)ccc2F)CS(=O)(=O)C2(CCC2)C(=N)N1`: the inhibition at 10 µM in assay [1] was determined as 54%. Further, the Ki in assay [2] was 3.97 µM.
Turning to `COc1ccc(C(=O)Nc2ccc(F)c([C@]3(C)CS(=O)(=O)C4(CC4)C(=N)N3)c2)nc1` [Example 5], the Ki in assay [1] was 0.0034 µM; in assay [2] it was 0.0019 µM.
The corresponding values for `C[C@@]1(c2cc(NC(=O)c3ccc(Cl)cn3)ccc2F)CS(=O)(=O)C2(CCCC2)C(=N)N1` [Example 12] are 0.0013 µM and 0.0003 µM.
With `C[C@@]1(c2sc(C(=O)NCc3ccc(C#N)cc3)cc2Cl)CS(=O)(=O)C2(CCCCC2)C(=N)N1` [Example 80f], in assay [1], the Ki was 0.851 µM.
With `C[C@@]1(c2sc(C#CCN3CCOCC3)cc2Cl)CS(=O)(=O)C2(CCC2)C(=N)N1` [Example 77d], the Ki in assay [1] was 2.36 µM.
For `C[C@@]1(c2sc(-c3ccnc(-c4ccccc4)c3)cc2Cl)CS(=O)(=O)[C@@]2(CCOC2)C(=N)N1` [Example 63k], the inhibitory constant (Ki) in assay [1] is 0.849 µM.
Take `C[C@@]1(c2cc(NC(=O)C3(C#N)CC3)ccc2F)CS(=O)(=O)[C@]2(CCOC2)C(=N)N1` [Example 81i]: in assay [1], the Ki is 0.741 µM.
With `C[C@@]1(c2sc(C(=O)NCc3cccc(F)c3)cc2Cl)CS(=O)(=O)C2(CCCCC2)C(=N)N1` [Example 80d], the inhibitory constant (Ki) in assay [1] was 5.12 µM.
Consider `CCC(=O)Nc1ccc(F)c([C@]2(C)CS(=O)(=O)[C@]3(CCOC3)C(=N)N2)c1` [Example 81l], for which, in assay [1], the Ki was 0.949 µM.
Regarding `COc1ccc(C(=O)Nc2ccc(F)c([C@]3(C)CS(=O)(=O)[C@]4(CCOC4)C(=N)N3)c2)nn1` [Example 81ae], in assay [1], the Ki was 0.904 µM.
For the compound `Cc1ncc(NC(=O)c2cc(Cl)c([C@]3(C)CS(=O)(=O)C4(CCCCC4)C(=N)N3)s2)cn1` [Example 80h], the inhibition at 10 µM in assay [1] was determined as 32%.
In the case of `C[C@@]1(c2cc(-c3cncc(C#N)c3)ccc2F)CS(=O)(=O)C2(CCCC2)C(=N)N1` [Example 38], in assay [1], the Ki is 0.939 µM.
As for `C[C@@]1(c2cc(NC(=O)c3ncc(Cl)cc3F)ccc2F)CS(=O)(=O)C2(CCOCC2)C(=N)N1` [Example 35a], the Ki in assay [1] was 0.0065 µM.
With `Cc1cnc(C(=O)Nc2ccc(F)c([C@]3(C)CS(=O)(=O)[C@]4(CCOC4)C(=N)N3)c2)cn1` [Example 81h], the Ki in assay [1] was 0.108 µM.
Same read-out and setting: the same measure for `CCc1cncc(-c2cc(Cl)c([C@]3(C)CS(=O)(=O)[C@@]4(CCOC4)C(=N)N3)s2)c1` [Example 63i]: 1.78 µM; for `C[C@@]1(c2cc(NC(=O)c3ncccc3C(F)(F)F)ccc2F)CS(=O)(=O)[C@]2(CCOC2)C(=N)N1` [Example 81ab]: 0.146 µM.
For the compound `C[C@@]1(c2cc(NC(=O)c3ccc(F)cc3F)ccc2F)CS(=O)(=O)[C@]2(CCOC2)C(=N)N1` [Example 81v], in assay [1], the inhibition at 10 µM is 58%.
On to `CCOCC(=O)Nc1ccc(F)c([C@]2(C)CS(=O)(=O)[C@]3(CCOC3)C(=N)N2)c1` [Example 81a], for which the Ki in assay [1] is 4.15 µM.
Consider `C[C@@]1(c2sc(-c3cncnc3)cc2Cl)CS(=O)(=O)C2(CCOCC2)C(=N)N1` [Example 51], for which the Ki in assay [1] is 0.688 µM.
Consider `COc1cccc2cc(-c3ccc(F)c([C@]4(C)CS(=O)(=O)C5(CCCC5)C(=N)N4)c3)n(C(=O)OC(C)(C)C)c12` [Example 39], for which, in assay [1], the Ki was 1.33 µM.
As to `Cc1cc(C(=O)Nc2ccc(F)c([C@]3(C)CS(=O)(=O)[C@]4(CCOC4)C(=N)N3)c2)no1` [Example 81af], the Ki in assay [1] was 1.33 µM.
As to `C[C@@]1(c2cc(NC(=O)c3ccc(Cl)cn3)ccc2F)CS(=O)(=O)C2(CCCCC2)C(=N)N1` [Example 24], the inhibitory constant (Ki) in assay [2] was under 0.02 µM.
Take `CC(C)C(F)(F)c1ccc(C(=O)Nc2ccc(F)c([C@]3(C)CS(=O)(=O)[C@]4(CCOC4)C(=N)N3)c2)nc1` [Example 81ac]: in assay [1], the inhibition at 10 µM came out at 35%.
For the compound `C[C@@]1(c2sc(-c3cncc(N4CCOCC4)c3)cc2Cl)CS(=O)(=O)[C@@]2(CCOC2)C(=N)N1` [Example 63j], in assay [1], the Ki is 3.69 µM.
On to `C[C@@]1(c2sc(C#CCCNS(C)(=O)=O)cc2Cl)CS(=O)(=O)C2(CCC2)C(=N)N1` [Example 77c], for which the Ki in assay [1] is 0.105 µM.
As for `C[C@@]1(c2sc(C(=O)NCc3cnoc3)cc2Cl)CS(=O)(=O)C2(CCCCC2)C(=N)N1` [Example 80], the Ki in assay [1] is 0.249 µM.
For `C[C@@]1(c2cc(NC(=O)c3ccno3)ccc2F)CS(=O)(=O)[C@]2(CCOC2)C(=N)N1` [Example 81b], in assay [1], the Ki was 0.3 µM.
Regarding `C[C@@]1(c2cc(NC(=O)c3cocn3)ccc2F)CS(=O)(=O)[C@]2(CCOC2)C(=N)N1` [Example 81c], the Ki in assay [1] was 0.18 µM.
Take `C[C@@]1(c2sc(-c3cncnc3)cc2Cl)CS(=O)(=O)C2(CCCC2)C(=N)N1` [Example 43]: in assay [1], the Ki is 0.0731 µM.
For `C[C@@]1(c2sc(-c3cccc(-c4nnco4)c3)cc2Cl)CS(=O)(=O)C2(CCOCC2)C(=N)N1` [Example 57a], the Ki in assay [1] was 0.0349 µM.
Regarding `C[C@@]1(c2sc(-c3cncc(N4CCOCC4)c3)cc2Cl)CS(=O)(=O)[C@]2(CCOC2)C(=N)N1` [Example 62i], the Ki in assay [1] is 1.66 µM.
